Results from US20220324835A1 (Nurix Therapeutics, Inc., priority 2018, published 2022).

How the values were obtained:
Cbl-b (residues 36-427) = Cbl-b (residues 36-427) (Homo sapiens, UniProt Q13191); experiment: Cbl-b binding assay (SPR, Biacore T200); conditions: 20° C., 1:1 binding model
Experimental: SPR data was collected on a Biacore T200 (GE Healthcare) using a NeutrAvidin (Invitrogen) capture surface that was generated on a polycarboxylate hydrogel sensor chip of medium charge density (XanTec Bioanalytics GmbH) at 20° C. The surface was prepared using 20 mM HEPES, pH 7.5, 100 mM NaCl, 0.5 mM TCEP, 0.01% Triton X-100 as the immobilization buffer. Neutravidin was coupled to the sensor chip through EDC/NHS amine coupling. All steps were performed using a flow rate of 10 μl/min. First, the chip was preconditioned with a 3-min injection of 1 M NaCl, 0.1 M Borate followed by a 10-min equilibration in immobilization buffer. The surface was activated by a 5-min injection of 100 mM EDC/50 mM NHS. Next, 250 μg/mL NeutrAvidin buffered in 10 mM sodium acetate buffer, pH 5.0 was injected over the surface for 2 min. The surface was deactivated with 1 M Tris, pH 8.5 for 7 min then re-equilibrated in immobilization buffer for 7 min. […] Flow cell 1 served as a reference surface and was prepared without protein. All binding measurements were made in 20 mM HEPES, pH 7.5, 100 mM NaCl, 0.5 mM TCEP, 0.01% Triton X-100, 2% DMSO (referred as assay buffer) at 20° C. Compounds, prepared in assay buffer, were diluted from atop concentration of either 100 μM or 50 μM using either a 2- or 3-fold dilution scheme containing 8 or 10 points. Samples were injected for 50 s at 50 μl/min. Dissociation time varied from 90-180 s, depending on anticipated potency. The surface was regenerated by injection of 0.3 M NaCl, prepared in assay buffer for 20 s at 10 μl/min. Positive and negative control samples were run between each compound to monitor surface integrity.
Column marked with an asterisk (*) were tested as described above with assay buffer containing 50 mM NaCl instead of 100 mM NaCl and 30 nM Src kinase instead of 60 nM Src kinase. The resulting data for the Cbl-b binding assay was solvent corrected and double referenced prior to analysis. All data were globally fit to a steady-state affinity and kinetic binding model where applicable). Fit parameters were derived from a 1:1 binding model using the Biacore T200 Evaluation Software V2.0 (GE Healthcare) (Table 2).

Cbl-b [1] = target: T1, Cbl-b (Homo sapiens, UniProt Q13191); experiment: Cbl-b inhibition assay (Cbl-b activity assay, FRET, Biological Example 1; 100 mM NaCl, 60 nM Src kinase); type: biochemical; conditions: upper bound stated in text lists; read-out: IC50 values in the Cbl-b inhibition assay of Biological Example 1
Method in brief: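 Inhibitor activity is measured as reduced terbium-to-fluorescein FRET between streptavidin-terbium on biotinylated Cbl-b and Bodipy-fluorescein ubiquitin carried by an irreversible UbcH5B-Ub conjugate, binding of which depends on Src phosphorylation of Cbl-b.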

Cbl-b [2] = target: T1, Cbl-b; experiment: Cbl-b activity assay (Cbl-b inhibition assay), TR-FRET of Cbl-b interaction with UbcH5B-Ub; type: biochemical
Method in brief: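 UbcH5B (C85K) conjugated to N-terminally Bodipy-Fluorescein-labeled ubiquitin served as the fluorescent partner. After compound preincubation, Src kinase (60 nM) with 1 mM ATP and 5 mM MgCl2 (final) was added for 1.5 h, followed by a further 1 h incubation. Some values were obtained with 50 mM NaCl and 30 nM Src.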

[3] = assay buffer with 100 mM NaCl, 60 nM Src kinase, read-out: Cbl-b activity IC50
[4] = * assay buffer containing 50 mM NaCl instead of 100 mM NaCl and 30 nM Src kinase instead of 60 nM, read-out: Cbl-b activity IC50 (μM)*

T1 sequence (Q13191 36-427): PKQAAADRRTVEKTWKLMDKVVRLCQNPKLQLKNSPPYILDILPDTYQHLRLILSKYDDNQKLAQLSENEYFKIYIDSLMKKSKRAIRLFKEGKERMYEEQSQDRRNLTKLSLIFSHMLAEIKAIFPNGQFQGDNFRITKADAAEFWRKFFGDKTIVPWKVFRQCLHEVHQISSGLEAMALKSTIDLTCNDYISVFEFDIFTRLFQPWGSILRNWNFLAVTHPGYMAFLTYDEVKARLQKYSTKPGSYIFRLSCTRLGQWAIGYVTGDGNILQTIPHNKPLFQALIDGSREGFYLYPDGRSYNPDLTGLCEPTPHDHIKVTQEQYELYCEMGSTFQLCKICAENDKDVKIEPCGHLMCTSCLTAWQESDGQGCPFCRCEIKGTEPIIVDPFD
Chain of Cbl-b (residues 36-427) (Q13191 36-427): as above

CC(Sc1nncn1C)c1cc(N)nc(N2Cc3c(cccc3C(F)(F)F)C2=O)c1 (stereo not shown) [Compound 175, 2-[6-amino-4-[1-[(4-methyl-1,2,4-triazol-3-yl)sulfanyl]ethyl]-2-pyridyl]-4-(trifluoromethyl)isoindolin-1-one]
Kd (Cbl-b (residues 36-427)): 3 to 10 µM | IC50 (Cbl-b [1]): ≤ 10 µM | IC50 (Cbl-b [2]; [3]): 3 to 10 µM

CNCCNC(=O)c1ccnc(C(=O)Nc2cccc([C@H](C)Cc3nncn3C)c2)c1 [Compound 244, (R)-N2-(3-(1-(4-methyl-4H-1,2,4-triazol-3-yl)propan-2-yl)phenyl)-N4-(2-(methylamino)ethyl)pyridine-2,4-dicarboxamide]
Kd (Cbl-b (residues 36-427)): 1 to 3 µM | IC50 (Cbl-b [1]): ≤ 10 µM | IC50 (Cbl-b [2]; [3]): 1 to 3 µM

C[C@H](Sc1nncn1C)c1ccnc(NC(=O)c2cccc(Cl)n2)c1 [Compound 124, 6-chloro-N-[4-[(LV)-1-[(4-methyl-1,2,4-triazol-3-yl)sulfanyl]ethyl]-2-pyridyl]pyridine-2-carboxamide]
Kd (Cbl-b (residues 36-427)): 3 to 10 µM | IC50 (Cbl-b [1]): ≤ 10 µM | IC50 (Cbl-b [2]; [3]): 1 to 3 µM

C[C@@H](Sc1nncn1C)c1cccc(NC(=O)c2cc(C(=O)N3CC[C@H](O)C3)ccn2)c1 [Compound 161, 4-[[(3S)-3-hydroxypyrrolidin-1-yl]carbonyl]-N-[3-[(1R)-1-[(4-methyl-4H-1,2,4-triazol-3-yl)sulfanyl]ethyl]phenyl]pyridine-2-carboxamide]
Kd (Cbl-b (residues 36-427)): > 10 µM | IC50 (Cbl-b [1]): ≤ 10 µM | IC50 (Cbl-b [2]; [3]): 3 to 10 µM

C[C@H](Sc1nncn1C)c1ccnc(NC(=O)c2cccc(C(C)(F)F)n2)c1 [Compound 110, (S)-6-(1,1-difluoroethyl)-V-(4-(1-((4-methyl-4H-1,2,4-triazol-3-yl)thio)ethyl)pyridin-2-yl)picolinamide]
Kd (Cbl-b (residues 36-427)): 3 to 10 µM | IC50 (Cbl-b [1]): ≤ 1 µM | IC50 (Cbl-b [2]; [3]): 0.301 to 1 µM

CCC(Sc1nncn1C)c1cccc(NC(=O)c2ccc3ccccc3n2)c1 (stereo not shown) [Compound 136, N-[3-[1-[(4-methyl-1,2,4-triazol-3-yl)sulfanyl]propyl]phenyl]quinoline-2-carboxamide]
Kd (Cbl-b (residues 36-427)): 3 to 10 µM | IC50 (Cbl-b [2]; [4]): 3 to 10 µM

CNC(=O)COc1ccc2cnc(C(=O)Nc3cccc([C@@H](C)Sc4nncn4C)c3)cc2c1 [Compound 306b, (R)-N-(3-(1-(4-methyl-4H-1,2,4-triazol-3-ylthio)ethyl)phenyl)-6-(2-(methylamino)-2-oxoethoxy)isoquinoline-3-carboxamide]
Kd (Cbl-b (residues 36-427)): 3 to 10 µM | IC50 (Cbl-b [2]; [3]): 3 to 10 µM

CC(Sc1nncn1C)c1ccc(F)c(NC(=O)c2ccc3ccccc3n2)c1 (stereo not shown) [Compound 96, N-[2-fluoro-5-[1-[(4-methyl-1,2,4-triazol-3-yl)sulfanyl]ethyl]phenyl]quinoline-2-carboxamide]
Kd (Cbl-b (residues 36-427)): > 10 µM | IC50 (Cbl-b [2]; [4]): 3 to 10 µM

C[C@H](Sc1nncn1C)c1cccc(NC(=O)c2cccc(C(F)(F)F)c2)c1 [Compound 29, (S)-N-(3-(1-((4-Methyl-4H-1,2,4-triazol-3-yl)thio)ethyl)phenyl)-3-(trifluoromethyl)benzamide]
Kd (Cbl-b (residues 36-427)): > 10 µM | IC50 (Cbl-b [2]; [4]): 3 to 10 µM

C[C@H](Sc1nncn1C)c1cccc(NC(=O)c2ccc3c(OCC(=O)O)cccc3n2)c1 [Compound 309, (S)-2-(2-(3-(1-(4-methyl-4H-1,2,4-triazol-3-ylthio)ethyl)phenylcarbamoyl)quinolin-5-yloxy)acetic acid]
Kd (Cbl-b (residues 36-427)): 3 to 10 µM | IC50 (Cbl-b [2]; [3]): 1 to 3 µM

CC(C)c1cccc(C(=O)Nc2cccc([C@H](C)Sc3nncn3C)c2)c1 [Compound 31, (S)-3-Isopropyl-N-(3-(1-((4-methyl-4H-1,2,4-triazol-3-yl)thio)ethyl)phenyl)benzamide]
Kd (Cbl-b (residues 36-427)): > 10 µM | IC50 (Cbl-b [2]; [4]): 3 to 10 µM

C[C@H](Sc1nncn1C)c1cccc(NC(=O)c2cc3ccc(OCC(=O)O)cc3cn2)c1 [Compound 308, (S)-2-((3-((3-(1-((4-methyl-4H-1,2,4-triazol-3-yl)thio)ethyl)phenyl)carbamoyl)isoquinolin-7-yl)oxy)acetic acid]
Kd (Cbl-b (residues 36-427)): 3 to 10 µM | IC50 (Cbl-b [2]; [3]): 1 to 3 µM

CC(Sc1nncn1C)c1cccc(NC(=O)c2cnc3ccccc3n2)c1 (stereo not shown) [Compound 17, N-(3-(1-((4-Methyl-4H-1,2,4-triazol-3-yl)thio)ethyl)phenyl)quinoxaline-2-carboxamide]
Kd (Cbl-b (residues 36-427)): 3 to 10 µM | IC50 (Cbl-b [2]; [4]): 3 to 10 µM
